Source: the supplement of paper PMC10307832

Legend:
Test in all cases: relative viability (nuclei count vs DMSO), 5 days (fraction); higher = more cells survive
Erlotinib + Bortezomib = compound: C#Cc1cccc(Nc2ncnc3cc(OCCOC)c(OCCOC)cc23)c1 [Erlotinib] + CC(C)C[C@H](NC(=O)[C@H](Cc1ccccc1)NC(=O)c1cnccn1)B(O)O [Bortezomib] (partner 0.002 µM)
How it was run: (§1)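 The day after seeding in 1536-well plates, lung cancer cell lines were treated by pin tool with a single drug, or with a fixed anchor-drug dose together with five library-drug doses (not always all listed) in √10 steps. After 5 days, a combined fix-and-stain solution (final 0.05% Triton X-100, 1% formaldehyde, 1 ug/ml Hoechst) was added. Nuclei counted on 4× images gave relative viability as treated counts over vehicle counts, reported as the median of duplicate plates.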

AT9283 + Bortezomib = compound: O=C(Nc1c[nH]nc1-c1nc2ccc(CN3CCOCC3)cc2[nH]1)NC1CC1 [AT9283] + CC(C)C[C@H](NC(=O)[C@H](Cc1ccccc1)NC(=O)c1cnccn1)B(O)O [Bortezomib] (partner 0.002 µM)
How it was run: as §1

AT9283 + Luminespib = compound: O=C(Nc1c[nH]nc1-c1nc2ccc(CN3CCOCC3)cc2[nH]1)NC1CC1 [AT9283] + CCNC(=O)c1noc(-c2cc(C(C)C)c(O)cc2O)c1-c1ccc(CN2CCOCC2)cc1 [Luminespib] (partner 0.01 µM)
How it was run: as §1

AT9283 + Foretinib = compound: O=C(Nc1c[nH]nc1-c1nc2ccc(CN3CCOCC3)cc2[nH]1)NC1CC1 [AT9283] + COc1cc2c(Oc3ccc(NC(=O)C4(C(=O)Nc5ccc(F)cc5)CC4)cc3F)ccnc2cc1OCCCN1CCOCC1 [Foretinib] (partner 0.25 µM)
How it was run: as §1

AT9283 + Dasatinib = compound: O=C(Nc1c[nH]nc1-c1nc2ccc(CN3CCOCC3)cc2[nH]1)NC1CC1 [AT9283] + Cc1nc(Nc2ncc(C(=O)Nc3c(C)cccc3Cl)s2)cc(N2CCN(CCO)CC2)n1 [Dasatinib] (partner 0.075 µM)
How it was run: as §1

Row | Cell Line | relative viability (Erlotinib + Bortezomib; first compound 0.02 µM) | relative viability (Erlotinib + Bortezomib; first compound 0.2 µM) | relative viability (Erlotinib + Bortezomib; first compound 0.6325 µM) | relative viability (Erlotinib + Bortezomib; first compound 2 µM) | relative viability (AT9283 + Bortezomib; first compound 0.003 µM) | relative viability (AT9283 + Bortezomib; first compound 0.03 µM) | relative viability (AT9283 + Bortezomib; first compound 0.09487 µM) | relative viability (AT9283 + Bortezomib; first compound 0.3 µM) | relative viability (AT9283 + Luminespib; first compound 0.003 µM) | relative viability (AT9283 + Luminespib; first compound 0.03 µM) | relative viability (AT9283 + Luminespib; first compound 0.09487 µM) | relative viability (AT9283 + Luminespib; first compound 0.3 µM) | relative viability (AT9283 + Foretinib; first compound 0.003 µM) | relative viability (AT9283 + Foretinib; first compound 0.03 µM) | relative viability (AT9283 + Foretinib; first compound 0.09487 µM) | relative viability (AT9283 + Foretinib; first compound 0.3 µM) | relative viability (AT9283 + Dasatinib; first compound 0.003 µM) | relative viability (AT9283 + Dasatinib; first compound 0.03 µM) | relative viability (AT9283 + Dasatinib; first compound 0.09487 µM) | relative viability (AT9283 + Dasatinib; first compound 0.3 µM)
1 | 201T | 1.12 | 1.06 | 1.12 | 1.02 | 1.02 | 1.14 | 1.09 | 0.487 | 0.964 | 1 | 0.486 | 0.378 | 1.12 | 1.07 | 0.274 | 0.247 | 0.456 | 0.592 | 0.323 | 0.292
2 | A549 |  |  |  |  |  |  |  |  |  |  |  |  | 0.87 | 0.118 | 0.131 | 0.0419 |  |  |  | 
3 | A-427 | 1.01 | 1.04 | 1.1 | 0.951 | 0.977 | 0.427 | 0.216 | 0.188 | 0.822 | 0.486 | 0.319 | 0.176 | 1.01 | 1.04 | 0.24 | 0.216 | 0.698 | 0.402 | 0.124 | 0.131
4 | ABC-1 | 0.25 | 0.355 | 0.328 | 0.287 | 1.05 | 0.261 | 0.117 | 0.283 | 0.579 | 0.246 | 0.275 | 0.189 | 1.02 | 0.15 | 0.178 | 0.153 | 0.498 | 0.178 | 0.196 | 0.207
5 | BEN | 0.644 | 0.864 | 1.28 | 0.886 | 0.688 | 0.739 | 0.242 | 0.27 | 0.28 | 0.336 | 0.198 | 0.107 | 0.47 | 0.65 | 0.185 | 0.19 | 0.256 | 0.369 | 0.311 | 0.14
6 | CAL-12T | 0.879 | 0.73 | 0.713 | 0.487 | 0.89 | 0.896 | 0.547 | 0.212 | 0.149 | 0.548 | 0.627 | 0.18 | 1.1 | 0.773 | 0.414 | 0.283 | 0.495 | 0.204 | 0.124 | 0.12
7 | COR-L23 | 1.12 | 1.15 | 1.23 | 0.839 | 1.05 | 0.664 | 0.23 | 0.152 | 0.73 | 0.27 | 0.151 | 0.165 | 1.01 | 0.623 | 0.216 | 0.182 | 0.503 | 0.207 | 0.0898 | 0.101
8 | COR-L 105 | 0.828 | 0.342 | 0.407 | 0.335 | 0.758 | 0.303 | 0.352 | 0.249 | 1.02 | 0.334 | 0.401 | 0.33 | 0.847 | 0.673 | 0.249 | 0.361 | 0.327 | 0.181 | 0.197 | 0.185
9 | Calu-6 | 0.992 | 1.02 | 1.04 | 0.933 | 0.956 | 0.297 | 0.272 | 0.254 |  |  |  |  | 0.728 | 0.203 | 0.214 | 0.24 |  |  |  | 
10 | ChaGo-K-1 | 0.847 | 1.09 | 1.23 | 0.749 | 0.889 | 0.908 | 0.356 | 0.303 | 0.63 | 0.422 | 0.289 | 0.26 | 0.918 | 0.521 | 0.319 | 0.268 | 0.547 | 0.504 | 0.225 | 0.257
11 | EBC-1 | 0.609 | 0.588 | 0.477 | 0.587 | 0.526 | 0.239 | 0.172 | 0.169 |  |  |  |  | 0.107 | 0.0785 | 0.0877 | 0.075 |  |  |  | 
12 | EKVX | 1.13 | 0.513 | 0.323 | 0.17 | 0.996 | 0.652 | 0.636 | 0.351 | 0.874 | 0.836 | 0.555 | 0.307 | 0.775 | 0.728 | 0.626 | 0.257 | 0.501 | 0.413 | 0.241 | 0.195
13 | EMC-BAC-2 | 1.09 | 0.972 | 1.05 |  | 1.04 | 0.792 | 0.216 | 0.204 | 1.21 | 0.358 | 0.318 | 0.289 | 1.04 | 0.305 | 0.289 | 0.208 | 0.273 | 0.245 | 0.131 | 0.142
14 | EPLC-272H |  | 0.875 | 0.989 | 0.828 | 0.786 | 0.831 | 0.802 | 0.122 | 0.332 | 0.246 | 0.133 | 0.149 | 0.622 | 0.217 | 0.12 | 0.123 | 0.342 | 0.307 | 0.106 | 0.103
15 | H3255 | 0.99 | 0.758 | 0.244 | 0.179 | 0.632 | 0.719 | 0.542 | 0.172 | 0.713 | 0.905 | 0.969 | 0.254 | 0.924 | 0.794 | 0.734 | 0.183 | 0.323 | 0.316 | 0.331 | 0.235
16 | HARA | 1.2 | 1.01 | 0.959 | 0.867 | 0.795 | 1.05 | 0.172 | 0.158 | 0.755 | 0.189 | 0.0743 | 0.124 | 0.79 | 0.151 | 0.122 | 0.109 | 0.27 | 0.235 | 0.0621 | 0.0732
17 | HCC-15 | 1.01 | 1.12 | 1.12 | 0.969 | 1.05 | 0.773 | 0.696 | 0.166 | 0.302 | 0.234 | 0.133 | 0.115 | 1.02 | 0.397 | 0.161 | 0.19 | 0.587 | 0.221 | 0.112 | 0.112
